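96-well plates; 48 h exposure; 5 concentrations. Endpoints by linear interpolation between flanking doses. Not reached: highest tested concentration assigned. GI50 = concentration required for 50% inhibition of growth.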 Calls of active or inactive are those of the source. No stated cut-off is given here; in the data, active = GI50 up to about 1.1 µM and inactive = higher.
Tests used:
Assay in all cases: growth of human tumour cells (NCI), 48 h
Hs-578T = tested on: Hs-578T
EKVX = tested on: EKVX
MDA-MB-435 = tested on: MDA-MB-435
TK-10 = tested on: TK-10
HT-29 = tested on: HT-29
NCI/ADR-RES = tested on: NCI/ADR-RES
SNB-75 = tested on: SNB-75
CCRF-CEM = tested on: CCRF-CEM
SK-OV-3 = tested on: SK-OV-3
Malme-3M = tested on: Malme-3M
OVCAR-8 = tested on: OVCAR-8
UACC-62 = tested on: UACC-62
SR = tested on: SR
HOP-62 = tested on: HOP-62
RXF 393 = tested on: RXF 393
MDA-N = tested on: MDA-N
UO-31 = tested on: UO-31
HCT-116 = tested on: HCT-116
SK-MEL-28 = tested on: SK-MEL-28
SK-MEL-5 = tested on: SK-MEL-5
BT-549 = tested on: BT-549
786-0 = tested on: 786-0
SF-295 = tested on: SF-295
NCI-H460 = tested on: NCI-H460
COLO 205 = tested on: COLO 205
SF-539 = tested on: SF-539
A549 = tested on: A549
PC-3 = tested on: PC-3
M14 = tested on: M14
HOP-92 = tested on: HOP-92
MOLT-4 = tested on: MOLT-4
SW-620 = tested on: SW-620
NCI-H226 = tested on: NCI-H226
RPMI-8226 = tested on: RPMI-8226
MDA-MB-231 = tested on: MDA-MB-231
OVCAR-3 = tested on: OVCAR-3
HCC 2998 = tested on: HCC 2998
OVCAR-5 = tested on: OVCAR-5
KM12 = tested on: KM12
IGROV-1 = tested on: IGROV-1
SNB-19 = tested on: SNB-19
SN12C = tested on: SN12C
CAKI-1 = tested on: CAKI-1
K562 = tested on: K562
OVCAR-4 = tested on: OVCAR-4
SF-268 = tested on: SF-268
ACHN = tested on: ACHN
HL-60 = tested on: HL-60
LOX IMVI = tested on: LOX IMVI
DU-145 = tested on: DU-145
SK-MEL-2 = tested on: SK-MEL-2
NCI-H23 = tested on: NCI-H23
HCT-15 = tested on: HCT-15
UACC-257 = tested on: UACC-257
U-251 = tested on: U-251
NCI-H522 = tested on: NCI-H522
MCF7 = tested on: MCF7
T47D = tested on: T47D
A498 = tested on: A498

SMILES: N#Cc1c(N2CCCC2)ncn(-c2ccccc2)c1=S
- GI50 (Hs-578T): > 100 µM (inactive)
- GI50 (EKVX): > 100 µM (inactive)
- GI50 (MDA-MB-435): > 100 µM (inactive)
- GI50 (TK-10): > 100 µM (inactive)
- GI50 (HT-29): > 100 µM (inactive)
- GI50 (NCI/ADR-RES): > 100 µM (inactive)
- GI50 (SNB-75): 94.8 µM (inactive)
- GI50 (CCRF-CEM): > 100 µM (inactive)
- GI50 (SK-OV-3): > 100 µM (inactive)
- GI50 (Malme-3M): > 100 µM (inactive)
- GI50 (OVCAR-8): > 100 µM (inactive)
- GI50 (UACC-62): 19.5 µM (inactive)
- GI50 (SR): > 100 µM (inactive)
- GI50 (HOP-62): > 100 µM (inactive)
- GI50 (RXF 393): > 100 µM (inactive)
- GI50 (MDA-N): > 100 µM (inactive)
- GI50 (UO-31): > 100 µM (inactive)
- GI50 (HCT-116): > 100 µM (inactive)
- GI50 (SK-MEL-28): > 100 µM (inactive)
- GI50 (SK-MEL-5): > 100 µM (inactive)
- GI50 (BT-549): > 100 µM (inactive)
- GI50 (786-0): > 100 µM (inactive)
- GI50 (SF-295): > 100 µM (inactive)
- GI50 (NCI-H460): > 100 µM (inactive)
- GI50 (COLO 205): > 100 µM (inactive)
- GI50 (SF-539): > 100 µM (inactive)
- GI50 (A549): > 100 µM (inactive)
- GI50 (PC-3): > 100 µM (inactive)
- GI50 (M14): > 100 µM (inactive)
- GI50 (HOP-92): > 100 µM (inactive)
- GI50 (MOLT-4): > 100 µM (inactive)
- GI50 (SW-620): > 100 µM (inactive)
- GI50 (NCI-H226): > 100 µM (inactive)
- GI50 (RPMI-8226): > 100 µM (inactive)
- GI50 (MDA-MB-231): > 100 µM (inactive)
- GI50 (OVCAR-3): > 100 µM (inactive)
- GI50 (HCC 2998): > 100 µM (inactive)
- GI50 (OVCAR-5): > 100 µM (inactive)
- GI50 (KM12): > 100 µM (inactive)
- GI50 (IGROV-1): > 100 µM (inactive)
- GI50 (SNB-19): > 100 µM (inactive)
- GI50 (SN12C): > 100 µM (inactive)
- GI50 (CAKI-1): > 100 µM (inactive)
- GI50 (K562): > 100 µM (inactive)
- GI50 (OVCAR-4): > 100 µM (inactive)
- GI50 (SF-268): > 100 µM (inactive)
- GI50 (ACHN): > 100 µM (inactive)
- GI50 (HL-60): > 100 µM (inactive)
- GI50 (LOX IMVI): > 100 µM (inactive)
- GI50 (DU-145): > 100 µM (inactive)
- GI50 (SK-MEL-2): > 100 µM (inactive)
- GI50 (NCI-H23): > 100 µM (inactive)
- GI50 (HCT-15): > 100 µM
- GI50 (UACC-257): > 100 µM (inactive)
- GI50 (U-251): > 100 µM (inactive)
- GI50 (NCI-H522): > 100 µM (inactive)
- GI50 (MCF7): > 100 µM (inactive)
- GI50 (T47D): > 100 µM (inactive)
- GI50 (A498): > 100 µM (inactive)

SMILES: O=C(O)C(CSC(c1ccccc1)(c1ccccc1)c1ccccc1)/N=C/c1cccs1 (configuration not stated)
- GI50 (Hs-578T): 3.2 µM (inactive)
- GI50 (EKVX): 5.42 µM (inactive)
- GI50 (MDA-MB-435): 0.324 µM (active)
- GI50 (TK-10): 10.8 µM (inactive)
- GI50 (HT-29): 2.96 µM (inactive)
- GI50 (NCI/ADR-RES): 14 µM (inactive)
- GI50 (SNB-75): 5.48 µM (inactive)
- GI50 (CCRF-CEM): 1.87 µM (inactive)
- GI50 (SK-OV-3): 0.968 µM (active)
- GI50 (Malme-3M): 3.6 µM (inactive)
- GI50 (OVCAR-8): 2.55 µM (inactive)
- GI50 (UACC-62): 1.17 µM (inactive)
- GI50 (SR): 4.42 µM (inactive)
- GI50 (HOP-62): 5.62 µM (inactive)
- GI50 (RXF 393): 2.07 µM (inactive)
- GI50 (MDA-N): 0.357 µM (active)
- GI50 (UO-31): 17.7 µM (inactive)
- GI50 (HCT-116): 0.468 µM (active)
- GI50 (SK-MEL-28): 7.48 µM (inactive)
- GI50 (SK-MEL-5): 0.484 µM (active)
- GI50 (BT-549): 4.97 µM (inactive)
- GI50 (786-0): 1.17 µM (inactive)
- GI50 (SF-295): 1.26 µM (inactive)
- GI50 (NCI-H460): 3.16 µM (inactive)
- GI50 (COLO 205): 1.69 µM (inactive)
- GI50 (SF-539): 1.27 µM (inactive)
- GI50 (A549): 3.95 µM (inactive)
- GI50 (PC-3): 1.89 µM (inactive)
- GI50 (M14): 0.378 µM (active)
- GI50 (HOP-92): 14.6 µM (inactive)
- GI50 (MOLT-4): 4.19 µM (inactive)
- GI50 (SW-620): 1.76 µM (inactive)
- GI50 (NCI-H226): 9.12 µM (inactive)
- GI50 (RPMI-8226): 2.45 µM (inactive)
- GI50 (MDA-MB-231): 1.57 µM (inactive)
- GI50 (OVCAR-3): 2.31 µM (inactive)
- GI50 (HCC 2998): 2.06 µM (inactive)
- GI50 (OVCAR-5): 5.45 µM (inactive)
- GI50 (KM12): 2.78 µM (inactive)
- GI50 (IGROV-1): 1.95 µM (inactive)
- GI50 (SNB-19): 2.42 µM (inactive)
- GI50 (SN12C): 3.27 µM (inactive)
- GI50 (CAKI-1): 7.46 µM (inactive)
- GI50 (K562): 3.54 µM (inactive)
- GI50 (OVCAR-4): 15.1 µM (inactive)
- GI50 (SF-268): 2.42 µM (inactive)
- GI50 (ACHN): 12.8 µM (inactive)
- GI50 (HL-60): 2.54 µM (inactive)
- GI50 (LOX IMVI): 4.34 µM (inactive)
- GI50 (DU-145): 3.85 µM (inactive)
- GI50 (SK-MEL-2): 2.06 µM (inactive)
- GI50 (NCI-H23): 4.94 µM (inactive)
- GI50 (HCT-15): 4.24 µM
- GI50 (UACC-257): 4.13 µM (inactive)
- GI50 (U-251): 2 µM (inactive)
- GI50 (NCI-H522): 1.16 µM (inactive)
- GI50 (MCF7): 0.853 µM (active)
- GI50 (T47D): 3.37 µM (inactive)
- GI50 (A498): 30.3 µM (inactive)

SMILES: CC(=O)OCC1OC(N2C(c3ccccc3)=CC(c3ccco3)C(C#N)=C2S)C(OC(C)=O)C(OC(C)=O)C1OC(C)=O (configuration not stated)
- GI50 (Hs-578T): 2.17 µM (inactive)
- GI50 (EKVX): > 29 µM (inactive)
- GI50 (MDA-MB-435): 8.11 µM (inactive)
- GI50 (TK-10): 18.7 µM (inactive)
- GI50 (HT-29): 5.94 µM (inactive)
- GI50 (NCI/ADR-RES): 4.78 µM (inactive)
- GI50 (SNB-75): 2.55 µM (inactive)
- GI50 (CCRF-CEM): 12.6 µM (inactive)
- GI50 (SK-OV-3): 21.7 µM (inactive)
- GI50 (Malme-3M): 3.04 µM (inactive)
- GI50 (OVCAR-8): 2.83 µM (inactive)
- GI50 (UACC-62): 13.6 µM (inactive)
- GI50 (SR): 7.85 µM (inactive)
- GI50 (HOP-62): 6.27 µM (inactive)
- GI50 (RXF 393): 4.06 µM (inactive)
- GI50 (MDA-N): 11.3 µM (inactive)
- GI50 (UO-31): 9.23 µM (inactive)
- GI50 (HCT-116): 3.18 µM (inactive)
- GI50 (SK-MEL-28): 8.79 µM (inactive)
- GI50 (SK-MEL-5): 3.01 µM (inactive)
- GI50 (BT-549): 3.59 µM (inactive)
- GI50 (786-0): 2.03 µM (inactive)
- GI50 (SF-295): 14.4 µM (inactive)
- GI50 (NCI-H460): 14.7 µM (inactive)
- GI50 (COLO 205): 3 µM (inactive)
- GI50 (SF-539): 2.06 µM (inactive)
- GI50 (A549): 9.44 µM (inactive)
- GI50 (PC-3): 11.5 µM (inactive)
- GI50 (M14): 4.65 µM (inactive)
- GI50 (HOP-92): 6.22 µM (inactive)
- GI50 (MOLT-4): > 22.2 µM (inactive)
- GI50 (SW-620): 1.36 µM (inactive)
- GI50 (NCI-H226): 6.71 µM (inactive)
- GI50 (RPMI-8226): 9.1 µM (inactive)
- GI50 (MDA-MB-231): 3.13 µM (inactive)
- GI50 (OVCAR-3): 5.75 µM (inactive)
- GI50 (HCC 2998): 14.8 µM (inactive)
- GI50 (OVCAR-5): 6.9 µM (inactive)
- GI50 (KM12): 15.3 µM (inactive)
- GI50 (IGROV-1): 27.4 µM (inactive)
- GI50 (SNB-19): 11.9 µM (inactive)
- GI50 (SN12C): 4.22 µM (inactive)
- GI50 (CAKI-1): 14.7 µM (inactive)
- GI50 (K562): 4.25 µM (inactive)
- GI50 (OVCAR-4): 3.33 µM (inactive)
- GI50 (SF-268): 4.63 µM (inactive)
- GI50 (ACHN): 7.85 µM (inactive)
- GI50 (HL-60): 10.4 µM (inactive)
- GI50 (LOX IMVI): 5.74 µM (inactive)
- GI50 (DU-145): 19.7 µM (inactive)
- GI50 (SK-MEL-2): 28.8 µM (inactive)
- GI50 (NCI-H23): 5.79 µM (inactive)
- GI50 (HCT-15): > 100 µM
- GI50 (UACC-257): > 32.1 µM (inactive)
- GI50 (U-251): 2.54 µM (inactive)
- GI50 (NCI-H522): 16.6 µM (inactive)
- GI50 (MCF7): 25.5 µM (inactive)
- GI50 (T47D): 30.4 µM (inactive)
- GI50 (A498): 15.2 µM (inactive)

— ChEMBL document CHEMBL1201862, “PubChem BioAssay data set” (2004)
